Reference: the NIST ThermoML archive (doi:10.1016/j.jct.2006.05.005)
± gives the expanded uncertainty stated by the source.

Legend:
[1] = Liquid; for mass density: 293.15 K, 101.33 kPa
[2] = refractive index (Na D-line) (dimensionless); conditions: 293.15 K; 101.33 kPa; Liquid

mass density [1] | Normal boiling temperature [1] | refractive index [2] | SMILES
723.9 ± 2.4 kg/m3 | 68.40 ± 0.4 °C | – | CC(C)OC(C)C [diisopropyl ether]
736.1 ± 8.8 kg/m3 | 90.08 ± 0.4 °C | 1.3813 ± 0.0064 | CCCOCCC [dipropyl ether]
993 ± 0.74 kg/m3 | 141.2 ± 0.4 °C | 1.3811 ± 0.0017 | CCC(=O)O [propanoic acid]
